Assay results: patent publication US8575197B2, “Pyrolinone derivative and pharmaceutical composition comprising the same” (Shionogi & Co., Ltd., priority 2008, dated 2013)

These compounds were tested against human P2X3 receptor (Homo sapiens (Human), UniProt P56373) (assay: P2X3 receptor inhibition, ATP-evoked Fluo-3 calcium fluorescence (FDSS 3000)). Settings: C6BU-1 cell transfected with human P2X3 receptor gene; ATP-evoked Fluo-3 fluorescence.
Format: cell-based
Description: Stably expressing cell line (C6BU-1 cell transfected with human P2X3 receptor gene (GenBank accession number Y07683)) was used. The cells were seeded in a 96-well microtiter plate at a concentration of 8000 cells/well and cultured in the medium (8.3% fetal bovine serum, 8.3% horse serum, 1% antibiotic and antifungal in DMEM) for one day at 37° C. under 5% carbon dioxide atmosphere. The medium was replaced with 4 μM Fluo-3-AM solution (pH7.5) containing 20 mM HEPES, 137 mM NaCl, 2.7 mM KCl, 0.9 mM MgCl2, 5.0 mM CaCl2, 5.6 mM D-glucose, 2.5 mM probenecid, 10% BSA, and 0.08% Pluronic F-127, and incubated at 37° C. under 5% dioxide carbon atmosphere for one hour. The plate was washed with washing buffer (20 mM HEPES, 137 mM NaCl, 2.7 mM KCl, 0.9 mM MgCl2, 5.0 mM CaCl2, 5.6 mM D-glucose, 2.5 mM probenecid, pH7.5), and each well was added with 40 μL of this buffer. The plate was placed in High-Throughput Screening System FDSS 3000 (Hamamatsu Photonics K.K.). Measurement of fluorescence intensity by FDSS 3000 was started, and 40 μL of DMSO solutions containing different concentrations of the test compound as prepared by dilution with dilution buffer (20 mM HEPES, 137 mM NaCl, 2.7 mM KCl, 0.9 mM MgCl2, 5.0 mM CaCl2, 5.6 mM D-glucose, 2.5 mM probenecid, 0.1% Pluronic F-127, pH7.5) were dispensed to each well through the built-in automatic dispenser. Five minutes after, 40 nM ATP solution (50 μL) prepared by dilution with the dilution buffer was dispensed through the built-in automatic dispenser, and the measurement of fluorescence intensity was continued for 3 min. For each well, the specific maximum fluorescence intensity was calculated as the ratio of the maximum fluorescence intensity after addition of the ATP solution to the fluorescence intensity at the starting of the measurement. […] FDSS software (Hamamatsu Photonics K.K.) was used for calculation of the specific maximum fluorescence intensity. IC50 was calculated using Microsoft™ Excel™ (Microsoft Corporation) and XLfit™ (ID Business Solutions Ltd.).

human P2X3 receptor, sequence (P56373 whole entry): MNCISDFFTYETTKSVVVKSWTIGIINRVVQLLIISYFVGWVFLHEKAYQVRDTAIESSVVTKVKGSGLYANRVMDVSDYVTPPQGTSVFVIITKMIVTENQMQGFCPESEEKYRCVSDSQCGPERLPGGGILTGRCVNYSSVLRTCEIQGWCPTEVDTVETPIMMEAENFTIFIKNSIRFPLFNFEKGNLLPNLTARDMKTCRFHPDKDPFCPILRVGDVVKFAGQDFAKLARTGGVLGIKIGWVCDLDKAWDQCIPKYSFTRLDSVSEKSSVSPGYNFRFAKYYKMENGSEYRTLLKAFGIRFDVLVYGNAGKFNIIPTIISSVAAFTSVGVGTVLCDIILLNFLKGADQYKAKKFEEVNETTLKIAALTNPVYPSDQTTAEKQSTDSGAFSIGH

Structure (SMILES)	IC50
COC1=C(C(=O)CC(C)C)C(c2ccccc2OC)N(c2ccc(-c3ccc(C)s3)cc2)C1=O (stereo not shown) [Compound I-329]	578 nM
COc1ccccc1C1c2c(C(C)(CO)CO)n[nH]c2C(=O)N1c1ccc(-c2ccsc2)cc1 (stereo not shown) [II-266]	7 nM
COc1ccccc1C1c2c(C(C)C)n[nH]c2C(=O)N1c1ccc(-c2ccsc2)c(C)c1 (stereo not shown) [II-239]	205 nM
COc1ncccc1C1c2c(C(C)(C)CO)n[nH]c2C(=O)N1c1ccc(-c2cccs2)cc1 (stereo not shown) [II-110]	24 nM
CC(C)(C)c1n[nH]c2c1C(c1ccccc1OCCNS(C)(=O)=O)N(c1ccc(-c3ccsc3)cc1)C2=O (stereo not shown) [II-171]	7 nM
COCOc1ccccc1C1C(C(=O)C(C)C)=C(O)C(=O)N1c1ccc(-c2ccoc2)cc1 (stereo not shown) [Compound I-232]	24 nM
COc1cc(N2C(=O)C(O)=C(C(=O)C(C)C)C2c2ccccc2OC)ccc1-c1ccsc1 (stereo not shown) [Compound I-221]	81 nM
COCCOc1ccccc1C1C(C(=O)C(C)C)=C(O)C(=O)N1c1ccc(-c2ccon2)cc1 (stereo not shown) [Compound I-298]	269 nM
COc1ncccc1C1c2c(C(C)(C)C)n[nH]c2C(=O)N1c1ccc(C2=NCCS2)cc1 (stereo not shown) [II-192]	222 nM
CCc1ccccc1C1c2c(C(C)(C)C)n[nH]c2C(=O)N1c1ccc(-c2ccon2)cc1 (stereo not shown) [II-106]	226 nM
Cc1nc(-c2ccc(N3C(=O)C(O)=C(C(=O)C(C)C)C3c3ccccc3OC3CCCC3)cc2)no1 (stereo not shown) [Compound I-503]	17 nM
CC(C)C(=O)C1=C(O)C(=O)N(c2ccc(-c3ccsc3)cc2)C1c1ccccn1 (stereo not shown) [Compound I-219]	324 nM
COCc1ccccc1C1C(C(=O)CC(C)C)=C(O)C(=O)N1c1ccc(-c2csc(C)n2)cc1 (stereo not shown) [Compound I-428]	399 nM
COCCOc1ccccc1[C@@H]1C(C(=O)C(C)C)=C(O)C(=O)N1c1ccc(-c2ccoc2)cc1 [Compound I-208]	14 nM
COc1ncccc1C1C(C(=O)C(C)(C)C)=C(O)C(=O)N1c1ccc(-c2cccs2)cc1 (stereo not shown) [Compound I-115]	108 nM
Cc1ccc(-c2ccc(N3C(=O)C(O)=C(C(=O)CC(C)C)C3c3ccccc3OCCO)cc2)o1 (stereo not shown) [Compound I-384]	19 nM
COCCOc1ccccc1C1C(C(=O)C(C)(C)C)=C(O)C(=O)N1c1ccc(-c2nc(C)no2)cc1 (stereo not shown) [Compound I-128]	155 nM
CC(C)C(=O)C1=C(O)C(=O)N(c2ccc(-c3ccsc3)cc2)C1c1ccccc1OCC(CO)CO (stereo not shown) [Compound I-456]	6 nM
CC(C)COc1ccccc1C1C(C(=O)C2CCCC2)=C(O)C(=O)N1c1ccc(-c2ccon2)cc1 (stereo not shown) [Compound I-513]	65 nM
Cc1ccc(-c2ccc(N3C(=O)C(O)=C(C(=O)C(C)C)C3c3ccccc3C(=O)N(C)CCO)cc2)o1 (stereo not shown) [Compound I-585]	157 nM
CCC(CC)(CO)c1n[nH]c2c1C(c1ccccc1OC)N(c1ccc(-c3ccon3)cc1)C2=O (stereo not shown) [II-145]	33 nM
COc1ncccc1C1c2c(C(C)(C)C)n[nH]c2C(=O)N1c1ccc(-c2ccsc2)cc1 (stereo not shown) [II-223]	23 nM

Structure (SMILES)	IC50
CC(C)c1n[nH]c2c1C(c1ccccc1OCc1nnn[nH]1)N(c1ccc(-c3ccsc3)cc1)C2=O (stereo not shown) [II-175]	3 nM
CN(C)c1ccccc1C1c2c(C(C)(C)C)n[nH]c2C(=O)N1c1ccc(-c2ccon2)cc1 (stereo not shown) [II-119]	137 nM
COc1ccccc1C1C(S(=O)(=O)C(C)C)=C(O)C(=O)N1c1ccc(-c2ccc(C)o2)cc1 (stereo not shown) [Compound I-467]	286 nM
CC(C)(C)c1n[nH]c2c1C(c1cccnc1OCCO)N(c1ccc(-c3cccs3)cc1)C2=O (stereo not shown) [II-042]	10 nM
COc1ccccc1C1C2C(=O)C(C)(C)COC2(O)C(=O)N1c1ccc(-c2ccsc2)cn1 (stereo not shown) [Compound I-095]	195 nM
COc1ccccc1C1C(C(=O)C(C)C)=C(O)C(=O)N1c1ccc(-c2ccsc2)c(C)c1 (stereo not shown) [Compound I-236]	431 nM
COc1ccccc1C1c2c(C(C)C)n[nH]c2C(=O)N1c1ccc(-c2ccsc2)c(N(C)C)c1 (stereo not shown) [II-244]	144 nM
COCc1ccccc1C1C(C(=O)CC(C)C)=C(O)C(=O)N1c1ccc(-c2coc(C)n2)cc1 (stereo not shown) [Compound I-392]	946 nM
COCCOc1ncccc1C1c2c(C(C)C)n[nH]c2C(=O)N1c1ccc(-c2noc(C)n2)cc1 (stereo not shown) [II-280]	244 nM
CCCc1ccc(N2C(=O)C(O)=C(C(=O)C(C)(C)C)C2c2ccccc2OC)cc1 (stereo not shown) [Compound I-044]	468 nM
CC(C)COc1ccccc1C1C(C(=O)C(C)C)=C(O)C(=O)N1c1ccc(-c2ccon2)cc1 (stereo not shown) [Compound I-450]	36 nM
CC(C)(C)c1n[nH]c2c1C(c1cccnc1OCCO)N(c1ccc(-c3ccco3)cc1)C2=O (stereo not shown) [II-043]	17 nM
CC(C)C(=O)C1=C(O)C(=O)N(c2ccc(-c3ccsc3)cc2)C1c1ccccc1OCC(=O)O (stereo not shown) [Compound I-185]	111 nM
Cc1ccc(-c2ccc(N3C(=O)C(O)=C(C(=O)CC(C)C)C3c3ccccc3C(=O)N(C)C)cc2)o1 (stereo not shown) [Compound I-399]	44 nM
COC(=O)c1cc(N2C(=O)c3[nH]nc(C(C)C)c3C2c2ccccc2OC)ccc1-c1ccsc1 (stereo not shown) [II-241]	213 nM
COCCOc1ncccc1[C@H]1C(C(=O)C(C)C)=C(O)C(=O)N1c1ccc(-c2ccsc2)cc1 [Compound I-433]	425 nM
COc1ccc(-c2n[nH]c3c2C(c2ccccc2OCCO)N(c2nc4ccc(OC)cc4s2)C3=O)cc1 (stereo not shown) [II-118]	429 nM
COc1ccc(C(=O)C2=C(O)C(=O)N(c3ccc(-c4nc(C)no4)cc3)C2C2CCCCC2)cc1 (stereo not shown) [Compound I-020]	21 nM
CC(C)(C)c1n[nH]c2c1C(c1cccnc1OCCO)N(c1ccc(-c3ccsc3)cc1)C2=O (stereo not shown) [II-039]	5 nM
COc1ncccc1C1c2c(C(C)(C)C)n[nH]c2C(=O)N1c1ccc(SC)cc1 (stereo not shown) [II-007]	62 nM
COCCOc1ccccc1C1c2c(C(C)(C)C)n[nH]c2C(=O)N1c1ccc(-c2noc(C)n2)cc1 (stereo not shown) [II-025]	15 nM
COCCOc1ncccc1C1C(C(=O)C(C)C)=C(O)C(=O)N1c1ccc(-c2ccoc2)cc1 (stereo not shown) [Compound I-234]	56 nM

Structure (SMILES)	IC50
COc1ccc(N2C(=O)c3[nH]nc(C(C)(C)C)c3C2c2ccccc2OC)cc1 (stereo not shown) [II-098]	761 nM
CC(C)C(=O)C1=C(O)C(=O)N(c2ccc(-c3ccon3)cc2)C1c1ccccc1OC(F)(F)F (stereo not shown) [Compound I-297]	220 nM
COc1ccc(C2(c3n[nH]c4c3C(c3ccccc3OC)N(c3ccc(-c5ccon5)cc3)C4=O)CC2)cc1 (stereo not shown) [II-198]	123 nM
CSc1ccc(N2C(=O)C(O)=C(C(=O)C(C)(C)C)C2c2cccnc2OCCO)cc1 (stereo not shown) [Compound I-171]	610 nM
Cc1noc(-c2ccc(N3C(=O)C(O)=C(C(=O)C(C)C)C3c3ccccc3COC(C)C)cc2)n1 (stereo not shown) [Compound I-552]	186 nM
COc1ccccc1[C@@H]1C(C(=O)CC(C)C)=C(O)C(=O)N1c1ccc(-c2ccsc2)cc1 [Compound I-279]	16 nM
CC(C)c1n[nH]c2c1C(c1ccccc1OC(CO)CO)N(c1ccc(-c3ccsc3)cc1)C2=O (stereo not shown) [II-236]	5 nM
CC(C)(C)c1n[nH]c2c1C(c1cccc[n+]1[O-])N(c1ccc(-c3cccs3)cc1)C2=O (stereo not shown) [II-164]	36 nM
COCCOc1ncccc1C1C(C(=O)C(C)C)=C(O)C(=O)N1c1ccc(-c2noc(C)n2)cc1 (stereo not shown) [Compound I-174]	572 nM
COCCOc1ccccc1C1C(C(=O)C(C)(C)C)=C(O)C(=O)N1c1ccc(-c2ccco2)cc1 (stereo not shown) [Compound I-132]	43 nM
CC(C)CC(=O)C1=C(O)C(=O)N(c2ccc(-c3ccsc3)cc2)C1c1ccccc1C(F)(F)F (stereo not shown) [Compound I-292]	127 nM
CN(C)CCOc1ccccc1C1c2c(C(C)(C)C)n[nH]c2C(=O)N1c1ccc(-c2ccsc2)cc1 (stereo not shown) [II-031]	18 nM
COCCOc1ncccc1C1C(C(=O)C(C)(C)C)=C(O)C(=O)N1c1ccc(-c2ccsc2)cc1 (stereo not shown) [Compound I-138]	16 nM
COCCOc1ncccc1C1C(C(=O)CC(C)C)=C(O)C(=O)N1c1ccc(SC)cc1 (stereo not shown) [Compound I-550]	254 nM
CC(C)CC(=O)C1=C(O)C(=O)N(c2ccc(-c3ccoc3)cc2)C1c1ccccc1OC(C)C (stereo not shown) [Compound I-408]	18 nM
COc1ccccc1C1C(C(=O)C(C)C)=C(O)C(=O)N1c1ccc(-c2csnn2)cc1 (stereo not shown) [Compound I-531]	286 nM
COc1ccccc1C1C(C(=O)C(C)(C)C)=C(O)C(=O)N1c1ccc(-c2ccco2)cc1 (stereo not shown) [Compound I-092]	92 nM
COc1ccccc1C1c2c(C(C)(C)C)n[nH]c2C(=O)N1c1ccc(C(C)(C)O)cc1 (stereo not shown) [II-151]	650 nM
COc1ccccc1C1C(C(=O)C(C)C)=C(O)C(=O)N1c1ccc(-c2ccsc2)c(CO)c1 (stereo not shown) [Compound I-241]	822 nM
Cc1ncccc1C1C(C(=O)C(C)(C)C)=C(O)C(=O)N1c1ccc(-c2ccco2)cc1 (stereo not shown) [Compound I-142]	315 nM
